Reference: patent US5320825A, “Serotonin reuptake inhibitors for S.P.E.C.T. imaging” (Trustees of the University of Pennsylvania, priority 1991, dated 1994)
Counter-ions that a name gives are not always drawn. Like-named read-outs stand apart in the source and are kept apart here.

Key:
[1] = biological target: norepinephrine (NE) reuptake system; conditions: rat synaptosomes; read-out: Inhibition of monoamine uptake, NE (Ki); cited from earlier work
[2] = biological target: dopamine (DA) reuptake system; conditions: read-out: Inhibition of monoamine uptake, DA (Ki), cited from earlier work
[3] = biological target: serotonin reuptake system (5-HT); conditions: read-out: Inhibition of monoamine uptake, 5-HT (Ki), cited from earlier work
[4] = for Biodistribution, Blood / Biodistribution, Brain / Biodistribution, Heart / Biodistribution, Kidney / Biodistribution, Liver / Biodistribution, Lung / Biodistribution, Muscle / Biodistribution, Skin / Biodistribution, Spleen / Biodistribution, Thyroid: rat, iv
rat brain sections = conditions: ex vivo autoradiography, 2 hr. post i.v. injection, paroxetine 10 mg/Kg, i.p.
[5] = test system: prefrontal cortex membrane of rat brain; conditions: in vitro
serotonin reuptake sites = biological target: T1, serotonin reuptake sites (Rattus norvegicus, UniProt P31652); experiment: in vitro competitive binding assay, serotonin uptake sites, [3H]-Paroxetine
T1 construct: in rat brain tissue preparation; from tissue
T1 sequence (P31652 whole entry): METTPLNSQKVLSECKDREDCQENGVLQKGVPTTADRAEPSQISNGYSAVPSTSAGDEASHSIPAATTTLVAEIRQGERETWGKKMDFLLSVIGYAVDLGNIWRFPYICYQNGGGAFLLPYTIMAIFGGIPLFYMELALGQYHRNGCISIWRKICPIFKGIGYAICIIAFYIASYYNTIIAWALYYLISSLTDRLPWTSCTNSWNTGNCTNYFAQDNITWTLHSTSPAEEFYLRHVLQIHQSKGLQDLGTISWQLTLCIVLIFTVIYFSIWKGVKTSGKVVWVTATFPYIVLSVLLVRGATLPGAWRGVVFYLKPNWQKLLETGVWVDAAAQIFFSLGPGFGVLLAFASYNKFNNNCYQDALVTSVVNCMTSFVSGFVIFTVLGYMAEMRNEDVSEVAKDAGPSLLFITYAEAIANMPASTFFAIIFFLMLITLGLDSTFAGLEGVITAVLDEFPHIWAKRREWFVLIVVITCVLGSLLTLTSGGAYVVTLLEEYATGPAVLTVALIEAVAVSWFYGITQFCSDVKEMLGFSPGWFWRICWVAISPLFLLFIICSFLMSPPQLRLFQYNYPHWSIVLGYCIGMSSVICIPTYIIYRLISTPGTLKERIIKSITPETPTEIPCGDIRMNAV
Description: (§1) The affinity of the compounds prepared in Examples 1-4 to serotonin and norepinephrine uptake sites was studied using in vitro competitive binding assays.

[6] = biological target: norepinephrine reuptake sites (Rattus norvegicus, UniProt Q63380); experiment: in vitro competitive binding assay, norepinephrine uptake sites, [3H]-Nisoxetine; conditions: rat brain tissue preparation
Sequence of norepinephrine reuptake sites (Q63380 1-617): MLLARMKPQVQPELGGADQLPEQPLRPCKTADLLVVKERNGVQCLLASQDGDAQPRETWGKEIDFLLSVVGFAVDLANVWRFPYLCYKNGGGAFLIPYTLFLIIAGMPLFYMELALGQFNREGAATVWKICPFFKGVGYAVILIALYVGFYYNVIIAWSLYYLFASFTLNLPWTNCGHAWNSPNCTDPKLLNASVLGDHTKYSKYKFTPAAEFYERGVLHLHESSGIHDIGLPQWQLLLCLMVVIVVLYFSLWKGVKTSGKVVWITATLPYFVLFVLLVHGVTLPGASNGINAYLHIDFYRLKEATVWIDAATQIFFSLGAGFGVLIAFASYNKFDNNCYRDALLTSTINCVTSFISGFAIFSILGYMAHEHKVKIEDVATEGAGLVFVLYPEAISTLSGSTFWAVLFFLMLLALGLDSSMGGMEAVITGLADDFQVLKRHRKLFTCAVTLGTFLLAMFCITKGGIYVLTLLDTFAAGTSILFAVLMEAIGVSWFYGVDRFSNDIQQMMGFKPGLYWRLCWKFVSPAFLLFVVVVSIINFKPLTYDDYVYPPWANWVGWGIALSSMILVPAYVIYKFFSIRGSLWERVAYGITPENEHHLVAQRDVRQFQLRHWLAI
Description: as §1

[7] = Biodistribution of compound 7 in rats after an iv injection; type: in vivo; conditions: rat
Description: The biodistribution of [R]-(-)-N-methyl-3-phenyl-3-(4-^123 I-2-methylphenoxy)propylamine hydrochloride (compound 7) in rats, after intravenous injection, was analyzed. Results are presented in Table 4 and indicate that moderate brain uptake (0.64-0.84% dose/organ) is found consistently throughout the two hour period.

[8] = n = 3, 2nd time column (time not given)
[9] = n = 3, 4th time column (time not given)

Compound: Fc1ccc([C@@H]2CCNC[C@H]2COc2ccc3c(c2)OCO3)cc1 [Paroxetine]
- Ki [1]: 350 nM

Compound: CN[C@@H]1CC[C@@H](c2ccccc2)c2ccccc21 [Tametraline]
- Ki ([2]; rat synaptosomes): 60 nM
- Ki [1]: 20 nM
- Ki ([3]; rat synaptosomes): 50 nM

Compound: CN[C@@H]1C[C@H](c2ccc(Cl)c(Cl)c2)c2ccccc21 (relative stereo) [Indatraline cis, Indatraline]
- Ki [2]: 860 nM
- Ki [1]: 34 nM
- Ki [3]: 0.03 nM

Compound: CNCCC(Oc1ccc(C(F)(F)F)cc1)c1ccc([125I])cc1 (racemic) [Compound 15, iodo-fluoxetine]
- initial brain uptake ([4]; 2 min.): 0.68 % dose/organ
- brain retention ([4]; 8 hr.): 0.63 % dose/organ
- Biodistribution, Blood ([4]; 2 min.): 3.03 ± 0.40 % dose/organ
- Biodistribution, Brain ([4]; 2 min.): 0.61 ± 0.12 % dose/organ
- Biodistribution, Heart ([4]; 2 min.): 2.27 ± 0.31 % dose/organ
- Biodistribution, Kidney ([4]; 2 min.): 4.16 ± 0.36 % dose/organ
- Biodistribution, Liver ([4]; 2 min.): 15.92 ± 2.41 % dose/organ
- Biodistribution, Lung ([4]; 2 min.): 11.09 ± 2.32 % dose/organ
- Biodistribution, Muscle ([4]; 2 min.): 12.71 ± 5.3 % dose/organ
- Biodistribution, Skin ([4]; 2 min.): 4.90 ± 0.50 % dose/organ
- Biodistribution, Spleen ([4]; 2 min.): 0.61 ± 0.06 % dose/organ
- Biodistribution, Thyroid ([4]; 2 min.): 0.10 ± 0.04 % dose/organ
- Biodistribution, Blood ([4]; 15 min.): 1.71 ± 0.31 % dose/organ
- Biodistribution, Brain ([4]; 15 min.): 0.68 ± 0.02 % dose/organ
- Biodistribution, Heart ([4]; 15 min.): 1.14 ± 0.04 % dose/organ
- Biodistribution, Kidney ([4]; 15 min.): 4.05 ± 0.44 % dose/organ
- Biodistribution, Liver ([4]; 15 min.): 16.27 ± 2.35 % dose/organ
- Biodistribution, Lung ([4]; 15 min.): 6.77 ± 0.25 % dose/organ
- Biodistribution, Muscle ([4]; 15 min.): 16.01 ± 4.55 % dose/organ
- Biodistribution, Skin ([4]; 15 min.): 5.84 ± 0.95 % dose/organ
- Biodistribution, Spleen ([4]; 15 min.): 0.93 ± 0.15 % dose/organ
- Biodistribution, Thyroid ([4]; 15 min.): 0.07 ± 0.03 % dose/organ
- Biodistribution, Blood ([4]; 60 min.): 3.16 ± 0.36 % dose/organ
- Biodistribution, Brain ([4]; 60 min.): 0.78 ± 0.01 % dose/organ
- Biodistribution, Heart ([4]; 60 min.): 0.43 ± 0.05 % dose/organ
- Biodistribution, Kidney ([4]; 60 min.): 2.32 ± 0.38 % dose/organ
- Biodistribution, Liver ([4]; 60 min.): 17.64 ± 1.88 % dose/organ
- Biodistribution, Lung ([4]; 60 min.): 7.32 ± 0.45 % dose/organ
- Biodistribution, Muscle ([4]; 60 min.): 22.63 ± 4.48 % dose/organ
- Biodistribution, Skin ([4]; 60 min.): 10.76 ± 2.85 % dose/organ
- Biodistribution, Spleen ([4]; 60 min.): 1.20 ± 0.13 % dose/organ
- Biodistribution, Thyroid ([4]; 60 min.): 0.08 ± 0.01 % dose/organ
- Biodistribution, Blood ([4]; 120 min.): 3.62 ± 0.24 % dose/organ
- Biodistribution, Brain ([4]; 120 min.): 0.84 ± 0.073 % dose/organ
- Biodistribution, Heart ([4]; 120 min.): 0.48 ± 0.02 % dose/organ
- Biodistribution, Kidney ([4]; 120 min.): 1.82 ± 0.21 % dose/organ
- Biodistribution, Liver ([4]; 120 min.): 11.55 ± 0.78 % dose/organ
- Biodistribution, Lung ([4]; 120 min.): 7.21 ± 0.36 % dose/organ
- Biodistribution, Muscle ([4]; 120 min.): 24.22 ± 0.68 % dose/organ
- Biodistribution, Skin ([4]; 120 min.): 10.08 ± 0.78 % dose/organ
- Biodistribution, Spleen ([4]; 120 min.): 1.09 ± 0.07 % dose/organ
- Biodistribution, Thyroid ([4]; 120 min.): 0.10 ± 0.02 % dose/organ
- Biodistribution, Blood ([4]; 240 min.): 4.99 ± 0.70 % dose/organ
- Biodistribution, Brain ([4]; 240 min.): 0.70 ± 0.031 % dose/organ
- Biodistribution, Heart ([4]; 240 min.): 0.28 ± 0.01 % dose/organ
- Biodistribution, Kidney ([4]; 240 min.): 1.18 ± 0.17 % dose/organ
- Biodistribution, Liver ([4]; 240 min.): 11.52 ± 0.91 % dose/organ
- Biodistribution, Lung ([4]; 240 min.): 7.57 ± 2.36 % dose/organ
- Biodistribution, Muscle ([4]; 240 min.): 20.38 ± 2.67 % dose/organ
- Biodistribution, Skin ([4]; 240 min.): 8.27 ± 0.75 % dose/organ
- Biodistribution, Spleen ([4]; 240 min.): 0.71 ± 0.11 % dose/organ
- Biodistribution, Thyroid ([4]; 240 min.): 0.14 ± 0.001 % dose/organ
- Biodistribution, Blood ([4]; 480 min.): 7.61 ± 1.11 % dose/organ
- Biodistribution, Brain ([4]; 480 min.): 0.61 ± 0.07 % dose/organ
- Biodistribution, Heart ([4]; 480 min.): 0.32 ± 0.03 % dose/organ
- Biodistribution, Kidney ([4]; 480 min.): 1.11 ± 0.06 % dose/organ
- Biodistribution, Liver ([4]; 480 min.): 16.47 ± 2.03 % dose/organ
- Biodistribution, Lung ([4]; 480 min.): 5.00 ± 0.46 % dose/organ
- Biodistribution, Muscle ([4]; 480 min.): 19.90 ± 2.61 % dose/organ
- Biodistribution, Skin ([4]; 480 min.): 10.78 ± 0.07 % dose/organ
- Biodistribution, Spleen ([4]; 480 min.): 0.52 ± 0.048 % dose/organ
- Biodistribution, Thyroid ([4]; 480 min.): 0.22 ± 0.06 % dose/organ
- initial heart uptake ([4]; rats, 2 min. post injection): 2.3%
- heart uptake ([4]; rats, 8 hr. post injection): 0.3%
- regional distribution pattern in rat brain sections, effect of paroxetine pretreatment (rat brain sections): not altered by pretreatment of paroxetine
- non-specific binding [5]: strong non-specific binding

Compound: CNCC[C@H](Oc1ccc(I)cc1C)c1ccccc1 [Compound 14, {S}-(+)-N-Methyl-3-phenyl-3-(4-iodo-2-methylphenoxy)propylamine hydrochloride]
- Ki (serotonin reuptake sites): 0.8 nM
- IC50 [6]: 9 nM

Compound: CN[C@@H]1C[C@@H](c2ccc(Cl)c(Cl)c2)c2ccccc21 (relative stereo) [Indatraline trans, Indatraline]
- Ki [2]: 2000 nM
- Ki [1]: 90 nM
- Ki [3]: 0.58 nM

Compound: CNCC[C@H](Oc1cccc(I)c1)c1ccccc1 [Compound 11, [S]-(+)-N-Methyl-3-phenyl-3-(3-iodophenoxy)propylamine]
- Ki (serotonin reuptake sites; rat brain tissue preparation, [3H]-Paroxetine, read-out: Serotonin Uptake [3H]-Paroxetine Ki): 8.2 nM
- IC50 [6]: 7000 nM

Compound: CNCCC(Oc1ccccc1OC)c1ccccc1 (stereo not shown) [Nisoxetine]
- Ki ([2]; rat synaptosomes): 365 nM
- Ki [1]: 670 nM
- Ki ([3]; rat synaptosomes): 3.8 nM

Compound: CNCCC(Oc1ccc(C(F)(F)F)cc1)c1ccccc1 (stereo not shown) [Fluoxetine]
- Ki [2]: 1590 nM

Compound: CNCC[C@@H](Oc1cccc(I)c1)c1ccccc1 [Compound 4, [R]-(-)-N-Methyl-3-phenyl-3-(3-iodophenoxy)propylamine]
- Ki (serotonin reuptake sites): 0.8 nM
- IC50 [6]: 500 nM

Compound: CNCC[C@@H](Oc1ccc(I)cc1C)c1ccccc1.Cl [Compound 7, [R]-(-)-N-Methyl-3-phenyl-3-(4-iodo-2-methylphenoxy)propylamine hydrochloride]
- Ki (serotonin reuptake sites): 5 nM
- IC50 [6]: 20 nM
- Biodistribution, Blood [7, 8]: 2.19 ± 0.32 % dose/organ
- Biodistribution, Brain [7, 8]: 0.80 ± 0.04 % dose/organ
- Biodistribution, Heart [7, 8]: 0.55 ± 0.04 % dose/organ
- Biodistribution, Kidney [7, 8]: 2.70 ± 0.48 % dose/organ
- Biodistribution, Lung [7, 8]: 9.36 ± 1.52 % dose/organ
- Biodistribution, Skin [7, 8]: 6.75 ± 1.35 % dose/organ
- Biodistribution, Spleen [7, 8]: 1.09 ± 0.32 % dose/organ
- Biodistribution, Thyroid [7, 8]: 0.07 ± 0.02 % dose/organ
- Biodistribution, Blood [7, 9]: 2.39 ± 0.33 % dose/organ
- Biodistribution, Brain [7, 9]: 0.68 ± 0.01 % dose/organ
- Biodistribution, Kidney [7, 9]: 1.12 ± 0.44 % dose/organ
- Biodistribution, Lung [7, 9]: 6.81 ± 0.76 % dose/organ
- Biodistribution, Skin [7, 9]: 6.92 ± 0.83 % dose/organ
- Biodistribution, Spleen [7, 9]: 0.79 ± 0.05 % dose/organ
- brain uptake ([7]; throughout the two hour period): 0.64-0.84 % dose/organ
